Laboratory results from patent US20220202801A1, “USE OF COMPOUND IN PREPARATION OF DRUG FOR TREATING ATHEROSCLEROSIS” (GenEros Biopharma Ltd., priority 2019, published 2022).

Legend:
ApoE knockout mice [1] = test: Four blood lipids in serum of ApoE knockout mice (Example 1); type: in vivo; settings: serum
Text: (§1) Methods: SPF grade C57BL/6 ApoE −/−model mice were provided by Guangdong Medical Experimental Animal Center, laboratory animal production license No. SOCK (Guangdong) 2013-0002. Laboratory animal quality certificate number: 44007200048196). Mice were half male and half female, aged 8 to 12 weeks, and 72 animals in total. After four weeks of housing in a SPF-level animal facility, animals with less body weights were disposed. A total of 64 animals were randomly divided into 8 groups, 8 in each group, fed with 10% high-fat food, and received with different treatments. Animals were observed and administered with the medicines by gavage once daily. The body weights were measured once a week and continued for 58 days. […] The test sample was dissolved in dimethyl sulfoxide solution and prepared with 30% PEG300.
At the end of the experiment, animals were anesthetized with pentobarbital sodium. Blood was collected from the orbital venous plexus, and centrifuged at 3000 r/min at a low temperature for 10 min to separate the serum. The levels of total cholesterol TC, triglyceride TG, high-density lipoprotein HDL-C, and low-density lipoprotein LDL-C were measured, and the remaining serum was stored in a refrigerator at −80° C.
Statistical analysis: Data were expressed as the mean plus or minus the standard deviation (x± s), and analyzed by SPSS21.0 statistical software. […] The level of test is α=0.05.

CD68 = test: Immunohistochemistry of aortic wall, CD68; type: in vivo, mice; settings: IHC-P×400, single animal micrograph, 20 mg/kg
Text: as §1
(§2) After blood collection, the animals were sacrificed, and the aortic arch together with the heart and thoracic aorta were fixed with neutral formaldehyde and subject to pathological examination. The abdominal aorta was collected and quick-frozen in liquid nitrogen, and stored at −80° C.
(§3) c) Immunohistochemistry: The thoracic aorta was sliced and detected by immunohistochemistry for the expression of CD68, intercellular adhesion molecule-1 (ICAM-1), and vascular cell adhesion Molecule-1 (VCAM-1).

[2] = system: atherosclerotic lesions in ApoE knockout mice; test: Aortic HE and oil red O staining, atherosclerotic lesion scores (Example 1); type: in vivo
Text: as §1, §2
a) HE staining: aortic arch was sliced and HE stained. The plaques were observed under optical microscope.
b) Oil red O staining: aortic arch was sliced and oil red O stained. The plaques were observed under optical microscope.

ICAM-1 = test: Immunohistochemistry of aortic wall, ICAM-1; type: in vivo, mice; settings: IHC-P×400, single animal micrograph, 20 mg/kg
Text: as §1, §2, §3

[3] = Body weight of ApoE knockout mice on high-fat food (Example 1); type: in vivo; settings: 20 mg/kg gavage QD
Text: as §1
Statistical analysis: Data were expressed as the mean plus or minus the standard deviation (x± s), and analyzed by SPSS21.0 statistical software. The weight data of each group were compared by repeated measures analysis of variance; the blood lipid levels of the statin treatment group were compared with the model control group by independent sample T test; the blood lipid levels of the test samples A and B were compared with the model control group by one-way analysis of variance, and LSD method was used for the comparison among groups. The level of test is α=0.05.

VCAM-1 = test: Immunohistochemistry of aortic wall, VCAM-1; type: in vivo, mice; settings: IHC-P×400, single animal micrograph, 20 mg/kg
Text: as §1, §2, §3

ApoE knockout mice [4] = test: Blood lipid metabolism TG, TCHO, HDL-c, LDL-c (Example 2); type: in vivo
Text: Methods: A total of 130 SPF grade C57BL/6 ApoE −/− model male mice aged 8 weeks were purchased from Charles River Laboratories (Beijing, China) (animal license number: SCXK (Beijing) 2016-0001, animal qualification certificate No.: 11400700331337). After one week of acclimatization in a SPF-grade animal facility, the animals with less weights were discarded and the rest was randomly divided into 11 groups, with 8 animals in each group. Except for the healthy control group, the rest were fed with 10% high-fat food (the first day of the high-fat diet was recorded as D1). Starting from the 8th week of the high-fat diet, each group of animals was orally given solvents or corresponding drugs, and the volume of administration was 10 ml/kg, once a day for 8 weeks. Animals were observed and administered by gavage once a day and the body weight were measured once a week for 56 days. […] The store solution of the test samples was dissolved in dimethyl sulfoxide solution and prepared with 30% PEG300.
At the end of the experiment, the animals were euthanized by inhalation of carbon dioxide. Blood was taken from the heart, and centrifuged at 3000 r/min at a low temperature centrifuge for 10 min to separate the serum. The levels of total cholesterol TC, triglyceride TG, high-density lipoprotein HDL-C, and low-density lipoprotein LDL-C were measured, and the remaining serum was stored in a refrigerator at −80° C.
Before the start of the experiment, animal blood samples were analyzed for blood lipid metabolism, including conventional triglyceride (TG), total cholesterol (TCHO), high-density lipoprotein (HDL-c) and low-density lipoprotein (LDL-c). After high-fat or ordinary food feeding for 8 weeks, the blood lipid levels were measured again. After the drug treatment was started, blood lipid measurements were performed every four weeks until the end of the experiment.

[5] = half male and female, 20 mg/kg body weight
[6] = ♀, 20 mg/kg gavage QD, 58 days, 20 mg/kg
[7] = ♀, 20 mg/kg gavage QD, 58 days, listed as statin, 20 mg/kg
[8] = ♂, 20 mg/kg gavage QD, 58 days, 20 mg/kg
[9] = ♂, 20 mg/kg gavage QD, 58 days, listed as statin, 20 mg/kg
[10] = of 8 animals, 20 mg/kg body weight

CC(C)c1c(C(=O)Nc2ccccc2)c(-c2ccccc2)c(-c2ccc(F)cc2)n1CC[C@@H](O)C[C@@H](O)CC(=O)[O-].CC(C)c1c(C(=O)Nc2ccccc2)c(-c2ccccc2)c(-c2ccc(F)cc2)n1CC[C@@H](O)C[C@@H](O)CC(=O)[O-].[Ca+2] [Statin, Atorvastatin calcium, reference compound]
LDL-C (ApoE knockout mice [1]; [5]): 5.60 ± 1.19 mmol/L | TC (ApoE knockout mice [1]; [5]): 18.15 ± 2.38 mmol/L | TG (ApoE knockout mice [1]; half male and female, 20 mg/kg body weight, 20 mg/kg): 0.71 ± 0.19 mmol/L | TG (ApoE knockout mice [1]; half male and female, 20 mg/kg body weight, listed as statin, 20 mg/kg): lower | LDL-C (ApoE knockout mice [1]; ♀, 20 mg/kg gavage QD, 58 days): 5.03 ± 0.57 mmol/L | HDL-C (ApoE knockout mice [1]; [6]): 1.44 ± 0.09 mmol/L | TC (ApoE knockout mice [1]; [6]): 16.85 ± 1.76 mmol/L | TG (ApoE knockout mice [1]; [6]): 0.65 ± 0.06 mmol/L | HDL-C (ApoE knockout mice [1]; [7]): reduced to varying degrees, but there was no statistical difference | TC (ApoE knockout mice [1]; [7]): reduced to varying degrees, but there was no statistical difference | TG (ApoE knockout mice [1]; [7]): reduced to varying degrees, but there was no statistical difference | LDL-C (ApoE knockout mice [1]; ♂, 20 mg/kg gavage QD, 58 days): 6.17 ± 1.46 mmol/L | HDL-C (ApoE knockout mice [1]; [8]): 1.92 ± 0.62 mmol/L | TC (ApoE knockout mice [1]; [8]): 19.45 ± 2.37 mmol/L | TG (ApoE knockout mice [1]; [8]): 0.78 ± 0.27 mmol/L | HDL-C (ApoE knockout mice [1]; [9]): lower | TC (ApoE knockout mice [1]; [9]): lower | TG (ApoE knockout mice [1]; [9]): lower | aorta (CD68) signal expression in blood vessels (CD68): low to medium | Mild n (number of animal cases with mild lesions) [2, 10]: 0 | Moderate n (number of animal cases with moderate lesions) [2, 10]: 3 | No lesion n (number of animal cases) [2, 10]: 3 | Severe n (number of animal cases with severe lesions) [2, 10]: 2 | animals that had atherosclerosis (histological observation) ([2]; of 8 aortas examined, 20 mg/kg): 5 cases | Scores (atherosclerotic lesion score, average of the group) ([2]; score 0-3 per Table 8, 20 mg/kg body weight): 1.50 ± 1.31 | aorta (ICAM-1) signal expression in blood vessels (ICAM-1): low to medium | body weight ([3]; d1, half male and female): 25.1 ± 4.2 g | body weight ([3]; d1, ♀): 21.2 ± 0.9 g | body weight ([3]; d1, ♂): 28.9 ± 1.2 g | body weight ([3]; d8, half male and female): 25.4 ± 3.8 g | body weight ([3]; d8, ♀): 22.0 ± 0.6 g | body weight ([3]; d8, ♂): 28.9 ± 0.9 g | body weight ([3]; d15, half male and female): 25.3 ± 4.1 g | body weight ([3]; d15, ♀): 21.5 ± 0.7 g | body weight ([3]; d15, ♂): 29.0 ± 1.1 g | body weight ([3]; d22, half male and female): 25.2 ± 4.2 g | body weight ([3]; d22, ♀): 21.4 ± 0.6 g | body weight ([3]; d22, ♂): 29.0 ± 1.4 g | body weight ([3]; d29, half male and female): 25.2 ± 4.2 g | body weight ([3]; d29, ♀): 21.4 ± 0.6 g | body weight ([3]; d29, ♂): 29.1 ± 1.2 g | body weight ([3]; d36, half male and female): 25.7 ± 3.8 g | body weight ([3]; d36, ♀): 22.2 ± 0.9 g | body weight ([3]; d36, ♂): 29.2 ± 1.0 g | body weight ([3]; d43, half male and female): 26.0 ± 3.9 g | body weight ([3]; d43, ♀): 22.4 ± 0.5 g | body weight ([3]; d43, ♂): 29.6 ± 0.8 g | body weight ([3]; d50, half male and female): 26.5 ± 3.7 g | body weight ([3]; d50, ♀): 23.1 ± 0.9 g | body weight ([3]; d50, ♂): 29.8 ± 0.6 g | body weight ([3]; d57, half male and female): 26.4 ± 4.1 g | body weight ([3]; d57, ♀): 22.7 ± 0.8 g | body weight ([3]; d57, ♂): 30.0 ± 1.6 g | body weight ([3]; d58, half male and female): 26.2 ± 3.8 g | body weight ([3]; d58, ♀): 22.8 ± 0.5 g | body weight ([3]; d58, ♂): 29.7 ± 1.4 g | aorta (VCAM-1) signal expression in blood vessels (VCAM-1): low to medium | effect on total cholesterol (TCHO) level compared with the vehicle group (ApoE knockout mice [4]): reduce | effect on triglyceride (TG) level compared with the vehicle group (ApoE knockout mice [4]): increase
